# According to PubChem BioAssay (NCI):
#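 Briefly, cells in 96-well plates were exposed to five compound concentrations for 48 h, and endpoints were estimated by linear interpolation. TGI: total growth inhibition.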
# System: NCI-H23 lung
# Experiment: NCI-60 cell line screen, 48 h
row,Compound,TGI [µM]
1,O=C(O)c1ccc(P(=O)(O)c2ccc(C(=O)O)cc2Br)c(Br)c1,> 100
2,Cn1ccnc1CC(C)(O)c1ccccc1 (stereo not given),> 100

# System: NCI-H460 lung
# Experiment: NCI-60 cell line screen, 48 h
row,Compound,TGI [µM]
1,O=C1c2cccc3cc([N+](=O)[O-])cc(c23)C(=O)N1CCCN1CCN(CCCNc2ccc3ncn4c5ccccc5c(=O)c2c34)CC1,> 50
2,COC(=O)C(Cc1cn(C(C)=O)c2ccccc12)P(=O)(OC)OC (stereo not given),> 100
3,Cn1ccnc1CC(C)(O)c1ccccc1 (stereo not given),> 100

# System: NCI-H522 lung
# Experiment: NCI-60 cell line screen, 48 h
row,Compound,TGI [µM]
1,COC(=O)C(Cc1cn(C(C)=O)c2ccccc12)P(=O)(OC)OC (stereo not given),> 100
2,O=C(O)c1ccc(P(=O)(O)c2ccc(C(=O)O)cc2Br)c(Br)c1,> 100
3,Cn1ccnc1CC(C)(O)c1ccccc1 (stereo not given),> 100

# System: NCI/ADR-RES ovarian
# Experiment: NCI-60 cell line screen, 48 h
row,Compound,TGI [µM]
1,O=C1c2cccc3cc([N+](=O)[O-])cc(c23)C(=O)N1CCCN1CCN(CCCNc2ccc3ncn4c5ccccc5c(=O)c2c34)CC1,0.0864
2,COC(=O)C(Cc1cn(C(C)=O)c2ccccc12)P(=O)(OC)OC (stereo not given),> 100
3,Cn1ccnc1CC(C)(O)c1ccccc1 (stereo not given),> 100

# System: OVCAR-3 ovarian
# Experiment: NCI-60 cell line screen, 48 h
row,Compound,TGI [µM]
1,O=C1c2cccc3cc([N+](=O)[O-])cc(c23)C(=O)N1CCCN1CCN(CCCNc2ccc3ncn4c5ccccc5c(=O)c2c34)CC1,> 17.2
2,COC(=O)C(Cc1cn(C(C)=O)c2ccccc12)P(=O)(OC)OC (stereo not given),> 100
3,O=C(O)c1ccc(P(=O)(O)c2ccc(C(=O)O)cc2Br)c(Br)c1,> 100
4,Cn1ccnc1CC(C)(O)c1ccccc1 (stereo not given),> 100

# System: OVCAR-4 ovarian
# Experiment: NCI-60 cell line screen, 48 h
row,Compound,TGI [µM]
1,O=C1c2cccc3cc([N+](=O)[O-])cc(c23)C(=O)N1CCCN1CCN(CCCNc2ccc3ncn4c5ccccc5c(=O)c2c34)CC1,> 50
2,COC(=O)C(Cc1cn(C(C)=O)c2ccccc12)P(=O)(OC)OC (stereo not given),> 100
3,Cn1ccnc1CC(C)(O)c1ccccc1 (stereo not given),> 100

# System: OVCAR-5 ovarian
# Experiment: NCI-60 cell line screen, 48 h
row,Compound,TGI [µM]
1,O=C1c2cccc3cc([N+](=O)[O-])cc(c23)C(=O)N1CCCN1CCN(CCCNc2ccc3ncn4c5ccccc5c(=O)c2c34)CC1,> 16.9
2,COC(=O)C(Cc1cn(C(C)=O)c2ccccc12)P(=O)(OC)OC (stereo not given),> 100
3,Cn1ccnc1CC(C)(O)c1ccccc1 (stereo not given),> 100

# System: OVCAR-8 ovarian
# Experiment: NCI-60 cell line screen, 48 h
row,Compound,TGI [µM]
1,O=C1c2cccc3cc([N+](=O)[O-])cc(c23)C(=O)N1CCCN1CCN(CCCNc2ccc3ncn4c5ccccc5c(=O)c2c34)CC1,0.173
2,COC(=O)C(Cc1cn(C(C)=O)c2ccccc12)P(=O)(OC)OC (stereo not given),> 100
3,O=C(O)c1ccc(P(=O)(O)c2ccc(C(=O)O)cc2Br)c(Br)c1,> 100
4,Cn1ccnc1CC(C)(O)c1ccccc1 (stereo not given),> 100

# System: PC-3 prostate
# Experiment: NCI-60 cell line screen, 48 h
row,Compound,TGI [µM]
1,O=C1c2cccc3cc([N+](=O)[O-])cc(c23)C(=O)N1CCCN1CCN(CCCNc2ccc3ncn4c5ccccc5c(=O)c2c34)CC1,> 17.1
2,COC(=O)C(Cc1cn(C(C)=O)c2ccccc12)P(=O)(OC)OC (stereo not given),> 100
3,O=C(O)c1ccc(P(=O)(O)c2ccc(C(=O)O)cc2Br)c(Br)c1,> 100
4,Cn1ccnc1CC(C)(O)c1ccccc1 (stereo not given),> 100

# System: RPMI-8226 leukemia
# Experiment: NCI-60 cell line screen, 48 h
row,Compound,TGI [µM]
1,O=C1c2cccc3cc([N+](=O)[O-])cc(c23)C(=O)N1CCCN1CCN(CCCNc2ccc3ncn4c5ccccc5c(=O)c2c34)CC1,> 50
2,COC(=O)C(Cc1cn(C(C)=O)c2ccccc12)P(=O)(OC)OC (stereo not given),> 100
3,O=C(O)c1ccc(P(=O)(O)c2ccc(C(=O)O)cc2Br)c(Br)c1,> 100
4,Cn1ccnc1CC(C)(O)c1ccccc1 (stereo not given),> 100

# System: RXF 393 renal
# Experiment: NCI-60 cell line screen, 48 h
row,Compound,TGI [µM]
1,COC(=O)C(Cc1cn(C(C)=O)c2ccccc12)P(=O)(OC)OC (stereo not given),> 100
2,O=C(O)c1ccc(P(=O)(O)c2ccc(C(=O)O)cc2Br)c(Br)c1,> 100
3,Cn1ccnc1CC(C)(O)c1ccccc1 (stereo not given),> 100

# System: SF-268 CNS
# Experiment: NCI-60 cell line screen, 48 h
row,Compound,TGI [µM]
1,O=C1c2cccc3cc([N+](=O)[O-])cc(c23)C(=O)N1CCCN1CCN(CCCNc2ccc3ncn4c5ccccc5c(=O)c2c34)CC1,16.1
2,COC(=O)C(Cc1cn(C(C)=O)c2ccccc12)P(=O)(OC)OC (stereo not given),> 100
3,O=C(O)c1ccc(P(=O)(O)c2ccc(C(=O)O)cc2Br)c(Br)c1,> 100
4,Cn1ccnc1CC(C)(O)c1ccccc1 (stereo not given),> 100

# System: SF-295 CNS
# Experiment: NCI-60 cell line screen, 48 h
row,Compound,TGI [µM]
1,COC(=O)C(Cc1cn(C(C)=O)c2ccccc12)P(=O)(OC)OC (stereo not given),> 100
2,O=C(O)c1ccc(P(=O)(O)c2ccc(C(=O)O)cc2Br)c(Br)c1,> 100
3,Cn1ccnc1CC(C)(O)c1ccccc1 (stereo not given),> 100

# System: SF-539 CNS
# Experiment: NCI-60 cell line screen, 48 h
row,Compound,TGI [µM]
1,O=C1c2cccc3cc([N+](=O)[O-])cc(c23)C(=O)N1CCCN1CCN(CCCNc2ccc3ncn4c5ccccc5c(=O)c2c34)CC1,0.0871
2,COC(=O)C(Cc1cn(C(C)=O)c2ccccc12)P(=O)(OC)OC (stereo not given),> 100
3,O=C(O)c1ccc(P(=O)(O)c2ccc(C(=O)O)cc2Br)c(Br)c1,> 100
4,Cn1ccnc1CC(C)(O)c1ccccc1 (stereo not given),> 100

# System: SK-MEL-2 melanoma
# Experiment: NCI-60 cell line screen, 48 h
row,Compound,TGI [µM]
1,O=C1c2cccc3cc([N+](=O)[O-])cc(c23)C(=O)N1CCCN1CCN(CCCNc2ccc3ncn4c5ccccc5c(=O)c2c34)CC1,> 29
2,O=C(O)c1ccc(P(=O)(O)c2ccc(C(=O)O)cc2Br)c(Br)c1,> 100
3,Cn1ccnc1CC(C)(O)c1ccccc1 (stereo not given),> 100

# System: SK-MEL-28 melanoma
# Experiment: NCI-60 cell line screen, 48 h
row,Compound,TGI [µM]
1,O=C1c2cccc3cc([N+](=O)[O-])cc(c23)C(=O)N1CCCN1CCN(CCCNc2ccc3ncn4c5ccccc5c(=O)c2c34)CC1,> 25.5
2,COC(=O)C(Cc1cn(C(C)=O)c2ccccc12)P(=O)(OC)OC (stereo not given),> 100
3,O=C(O)c1ccc(P(=O)(O)c2ccc(C(=O)O)cc2Br)c(Br)c1,> 100
4,Cn1ccnc1CC(C)(O)c1ccccc1 (stereo not given),> 100

# System: SK-MEL-5 melanoma
# Experiment: NCI-60 cell line screen, 48 h
row,Compound,TGI [µM]
1,COC(=O)C(Cc1cn(C(C)=O)c2ccccc12)P(=O)(OC)OC (stereo not given),> 100
2,O=C(O)c1ccc(P(=O)(O)c2ccc(C(=O)O)cc2Br)c(Br)c1,> 100
3,Cn1ccnc1CC(C)(O)c1ccccc1 (stereo not given),> 100

# System: SK-OV-3 ovarian
# Experiment: NCI-60 cell line screen, 48 h
row,Compound,TGI [µM]
1,O=C1c2cccc3cc([N+](=O)[O-])cc(c23)C(=O)N1CCCN1CCN(CCCNc2ccc3ncn4c5ccccc5c(=O)c2c34)CC1,> 20
2,O=C(O)c1ccc(P(=O)(O)c2ccc(C(=O)O)cc2Br)c(Br)c1,> 100
3,Cn1ccnc1CC(C)(O)c1ccccc1 (stereo not given),> 100

# System: SN12C renal
# Experiment: NCI-60 cell line screen, 48 h
row,Compound,TGI [µM]
1,COC(=O)C(Cc1cn(C(C)=O)c2ccccc12)P(=O)(OC)OC (stereo not given),> 100
2,O=C(O)c1ccc(P(=O)(O)c2ccc(C(=O)O)cc2Br)c(Br)c1,> 100
3,Cn1ccnc1CC(C)(O)c1ccccc1 (stereo not given),> 100

# System: SNB-19 CNS
# Experiment: NCI-60 cell line screen, 48 h
row,Compound,TGI [µM]
1,O=C1c2cccc3cc([N+](=O)[O-])cc(c23)C(=O)N1CCCN1CCN(CCCNc2ccc3ncn4c5ccccc5c(=O)c2c34)CC1,> 50
2,COC(=O)C(Cc1cn(C(C)=O)c2ccccc12)P(=O)(OC)OC (stereo not given),> 100
3,O=C(O)c1ccc(P(=O)(O)c2ccc(C(=O)O)cc2Br)c(Br)c1,> 100
4,Cn1ccnc1CC(C)(O)c1ccccc1 (stereo not given),> 100

# System: SNB-75 CNS
# Experiment: NCI-60 cell line screen, 48 h
row,Compound,TGI [µM]
1,O=C1c2cccc3cc([N+](=O)[O-])cc(c23)C(=O)N1CCCN1CCN(CCCNc2ccc3ncn4c5ccccc5c(=O)c2c34)CC1,0.187
2,COC(=O)C(Cc1cn(C(C)=O)c2ccccc12)P(=O)(OC)OC (stereo not given),> 100
3,O=C(O)c1ccc(P(=O)(O)c2ccc(C(=O)O)cc2Br)c(Br)c1,> 100
4,Cn1ccnc1CC(C)(O)c1ccccc1 (stereo not given),> 100

# System: SR leukemia
# Experiment: NCI-60 cell line screen, 48 h
row,Compound,TGI [µM]
1,COC(=O)C(Cc1cn(C(C)=O)c2ccccc12)P(=O)(OC)OC (stereo not given),> 100
2,Cn1ccnc1CC(C)(O)c1ccccc1 (stereo not given),> 100

# System: SW-620 colon
# Experiment: NCI-60 cell line screen, 48 h
row,Compound,TGI [µM]
1,O=C1c2cccc3cc([N+](=O)[O-])cc(c23)C(=O)N1CCCN1CCN(CCCNc2ccc3ncn4c5ccccc5c(=O)c2c34)CC1,> 50
2,COC(=O)C(Cc1cn(C(C)=O)c2ccccc12)P(=O)(OC)OC (stereo not given),> 100
3,O=C(O)c1ccc(P(=O)(O)c2ccc(C(=O)O)cc2Br)c(Br)c1,> 100
4,Cn1ccnc1CC(C)(O)c1ccccc1 (stereo not given),> 100

# System: T-47D breast
# Experiment: NCI-60 cell line screen, 48 h
row,Compound,TGI [µM]
1,COC(=O)C(Cc1cn(C(C)=O)c2ccccc12)P(=O)(OC)OC (stereo not given),> 100

# System: TK-10 renal
# Experiment: NCI-60 cell line screen, 48 h
row,Compound,TGI [µM]
1,COC(=O)C(Cc1cn(C(C)=O)c2ccccc12)P(=O)(OC)OC (stereo not given),> 100
2,O=C(O)c1ccc(P(=O)(O)c2ccc(C(=O)O)cc2Br)c(Br)c1,> 100
3,Cn1ccnc1CC(C)(O)c1ccccc1 (stereo not given),> 100

# System: U251 CNS
# Experiment: NCI-60 cell line screen, 48 h
row,Compound,TGI [µM]
1,O=C1c2cccc3cc([N+](=O)[O-])cc(c23)C(=O)N1CCCN1CCN(CCCNc2ccc3ncn4c5ccccc5c(=O)c2c34)CC1,0.00861
2,COC(=O)C(Cc1cn(C(C)=O)c2ccccc12)P(=O)(OC)OC (stereo not given),> 100
3,Cn1ccnc1CC(C)(O)c1ccccc1 (stereo not given),> 100

# System: UACC-257 melanoma
# Experiment: NCI-60 cell line screen, 48 h
row,Compound,TGI [µM]
1,O=C1c2cccc3cc([N+](=O)[O-])cc(c23)C(=O)N1CCCN1CCN(CCCNc2ccc3ncn4c5ccccc5c(=O)c2c34)CC1,> 50
2,COC(=O)C(Cc1cn(C(C)=O)c2ccccc12)P(=O)(OC)OC (stereo not given),> 100
3,O=C(O)c1ccc(P(=O)(O)c2ccc(C(=O)O)cc2Br)c(Br)c1,> 100
4,Cn1ccnc1CC(C)(O)c1ccccc1 (stereo not given),> 100

# System: UACC-62 melanoma
# Experiment: NCI-60 cell line screen, 48 h
row,Compound,TGI [µM]
1,O=C1c2cccc3cc([N+](=O)[O-])cc(c23)C(=O)N1CCCN1CCN(CCCNc2ccc3ncn4c5ccccc5c(=O)c2c34)CC1,> 50
2,COC(=O)C(Cc1cn(C(C)=O)c2ccccc12)P(=O)(OC)OC (stereo not given),> 100
3,O=C(O)c1ccc(P(=O)(O)c2ccc(C(=O)O)cc2Br)c(Br)c1,> 100
4,Cn1ccnc1CC(C)(O)c1ccccc1 (stereo not given),> 100

# System: UO-31 renal
# Experiment: NCI-60 cell line screen, 48 h
row,Compound,TGI [µM]
1,COC(=O)C(Cc1cn(C(C)=O)c2ccccc12)P(=O)(OC)OC (stereo not given),> 100
2,O=C(O)c1ccc(P(=O)(O)c2ccc(C(=O)O)cc2Br)c(Br)c1,> 100
3,Cn1ccnc1CC(C)(O)c1ccccc1 (stereo not given),> 100
